Values joined by “and” are separate entries in the source; they are usually repeats but may differ in a detail not shown here. Equal entries are not always repeated. Peptide text beside a SMILES is read from it.
Tests used:
human CXCR4 [1] = molecular target: T1, human CXCR4 (Homo sapiens, UniProt P61073); experiment: Competitive receptor binding assay on Jurkat cells with 125I-CPCR4 as tracer; set-up: Jurkat cells that endogenously express the CXCR4 receptor; endogenous in cells; host or cells: Jurkat cells; details: Table 4, Orn-Nδ and/or Orn-Nα-modified pentapeptides; read-out: IC50
Description: For receptor binding assays cells were resuspended in PBS/0.2% BSA. A total of 200 μl of the suspension containing 400,000 Jurkat cells were incubated with 25 μl of the tracer solution (containing 3.1 kBq, approx. 0.1 nM) and 25 μl of the diluent or the competitor at different concentrations. […] After shaking for 2 h at room temperature, the incubation was terminated by centrifugation at 1300 rpm for 5 min. Cell pellets were washed once with cold PBS followed by a second centrifugation step. Cell bound radioactivity was determined by using a gamma counter. Experiments were repeated 2-3 times in triplicates. IC50 values of the compounds were calculated by nonlinear regression using GraphPad Prism (GraphPad Prism 4.0 Software, Inc., San Diego, Calif., USA). Each data point is the average of three determinations.

human CXCR4 [2] = molecular target: T1, human CXCR4; experiment: Receptor functionality: FACS staining of surface CXCR4 after pre-incubation with SDF-1α; type: cell-based; set-up: expressed in transfected cells; host or cells: murine CMS5 fibrosarcoma cells, retroviral vector pBulletCXCR4-IRES-eGFP
From the text: CXCR-4 staining was plotted against EGFP fluorescence (FL1).

human CXCR4 [3] = molecular target: T1, human CXCR4; experiment: Receptor internalization: tracer release after acidic buffer wash; type: cell-based; set-up: Jurkat cells that endogenously express the CXCR4 receptor; endogenous in cells; host or cells: Jurkat cells; details: after two short washing steps with acidic buffer (pH5.0)
From the text: Thereafter the tracer was mostly releasable from the receptor (>80%).

CMS5/CXCR4 tumours = experiment: Biodistribution of 125I-CPCR4 in CMS5 and CMS5/CXCR4 tumour bearing nude mice; type: in vivo; details: for accumulation in CMS5/CXCR4 tumours / accumulation in parental CMS5 (CXCR4 negative control) tumours: i.v.
Description: For animal experiments parental CMS5 cells and transduced CMS5/CXCR4 cells were injected subcutaneously in female Swiss nu/nu mice (Charles River, France). Therefore for each mouse 1.5×10^6 CMS5 cells and 2×10^6 CMS5/CXCR4 cells were resuspended in 75 μl PBS, respectively and mixed with the same volume Matrigel-Matrix HC (BD Biosciences, Heidelberg, Germany) according to the manufacturer's protocol. Subsequently cell suspension was inoculated at each shoulder, respectively. After 14-16 days of tumour growth mice were used for imaging and biodistribution purposes. All animal experiments were approved by the local authorities and are in compliance with the institutions guidelines.
The animals were sacrificed and dissected 30, 60 and 120 min after tracer injection. Organs of interest were removed and the radioactivity was measured in weighted tissue samples using the 1480 Wizard3 gamma counter from Wallac (Turku, Finland). Results are expressed as percent injected dose per gram tissue weight (% ID/g). Each value represents the mean of four to six animals.

human CXCR4 [4] = molecular target: T1, human CXCR4; experiment: Radioligand (saturation) binding of 125I-CPCR4 on Jurkat and CMS5/CXCR4 cells; set-up: Jurkat cells that endogenously express the CXCR4 receptor; endogenous in cells; host or cells: Jurkat cells
Description: For receptor binding assays cells were resuspended in PBS/0.2% BSA. A total of 200 μl of the suspension containing 400,000 Jurkat cells were incubated with 25 μl of the tracer solution (containing 3.1 kBq, approx. 0.1 nM) and 25 μl of the diluent or the competitor at different concentrations. […] Nonspecific binding was determined in the presence of 1 μM cold cyclo(D-Tyr^1[^127I]-Arg^2-Arg^3-Nal^4-Gly^5). After shaking for 2 h at room temperature, the incubation was terminated by centrifugation at 1300 rpm for 5 min. Cell pellets were washed once with cold PBS followed by a second centrifugation step. Cell bound radioactivity was determined by using a gamma counter. Experiments were repeated 2-3 times in triplicates. IC50 values of the compounds were calculated by nonlinear regression using GraphPad Prism (GraphPad Prism 4.0 Software, Inc., San Diego, Calif., USA). Each data point is the average of three determinations.
Whereas for Jurkat cells the Bmax value was more dependent on origin and varies stronger with culture conditions, the number of binding sites (Bmax) on CMS5/CXCR4 cells was constant and better reproducible (23±6 fmol receptor protein).

[5] = 60 min (1 h) post injection, listed as radiolabeled CPCR4

T1 sequence (P61073 whole entry): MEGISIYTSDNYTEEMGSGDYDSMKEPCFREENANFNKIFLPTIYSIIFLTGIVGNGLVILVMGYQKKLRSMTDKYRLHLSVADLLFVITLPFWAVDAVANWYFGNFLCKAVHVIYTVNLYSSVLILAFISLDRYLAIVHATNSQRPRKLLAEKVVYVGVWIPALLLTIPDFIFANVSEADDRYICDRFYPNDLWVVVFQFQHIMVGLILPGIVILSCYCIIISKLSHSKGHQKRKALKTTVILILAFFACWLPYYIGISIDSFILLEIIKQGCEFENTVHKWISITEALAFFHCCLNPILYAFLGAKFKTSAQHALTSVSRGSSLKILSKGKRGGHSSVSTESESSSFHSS

N=C(N)NCCC[C@@H]1NC(=O)[C@H](CCCNCc2ccc3ccccc3c2)NC(=O)[C@@H](Cc2ccc(O)cc2)NC(=O)CNC(=O)[C@H](Cc2ccc3ccccc3c2)NC1=O [cyc[D-Tyr-Orn(N2)-Arg-Nal-Gly]] (HELM PEPTIDE1{[dY].[O=C([C@H](CCCNCc1ccc2ccccc2c1)N[*:1])[*:2]].R.[O=C([C@H](Cc1ccc2ccccc2c1)N[*:1])[*:2]].G}$PEPTIDE1,PEPTIDE1,1:R1-5:R2$$$V2.0)
IC50 (human CXCR4 [1]): 0.049 ± 0.001 µM

SDF-1α
mean fluorescence intensity, CMS5/CXCR4 cells (human CXCR4 [2]; SDF-1α treated, mock treated 209.0): 80.5 | CMS5/CXCR4 cells stained positive for CXCR4 (human CXCR4 [2]; after pre-incubation with human SDF-1α 100 nM, 1 hr 37° C., control-treated […]): 54.7%

cyclo(D-Tyr^1[^125I]-Arg^2-Arg^3-Nal^4-Gly^5) [^125I-CPCR4]
tracer releasable from the receptor (human CXCR4 [3]): > 80% | accumulation in intestine (CMS5/CXCR4 tumours; 30 min post injection): 16.0 (±4.7) % ID/g | accumulation in liver (CMS5/CXCR4 tumours; 30 min post injection): 27.7 (±4.9) % ID/g | accumulation in CMS5/CXCR4 tumours (CMS5/CXCR4 tumours; 30 min post injection): 4.7 (±1.3) % ID/g | accumulation in kidneys (CMS5/CXCR4 tumours; 60 min (1 h) post injection): 12.2 (±2.3) % ID/g | accumulation in CMS5/CXCR4 tumours (CMS5/CXCR4 tumours; 60 min (1 h) post injection): 5.5 (±1.5) % ID/g and 5.5 % ID/g | accumulation in parental CMS5 (CXCR4 negative control) tumours (CMS5/CXCR4 tumours; 60 min (1 h) post injection): 0.6 (±0.2) % ID/g | accumulation in CMS5/CXCR4 tumours (CMS5/CXCR4 tumours; [5]): 5.5±1.5 % ID/g | accumulation in parental CMS5 (CXCR4 negative control) tumours (CMS5/CXCR4 tumours; [5]): 0.6±0.2 % ID/g | accumulation in kidneys (CMS5/CXCR4 tumours; [5]): 12.2±2.3 % ID/g | tracer uptake in intestine (CMS5/CXCR4 tumours; 1 h post injection): 17.2±2.9 % ID/g | tracer uptake in liver (CMS5/CXCR4 tumours; 1 h post injection): 19.5±2.8 % ID/g | background accumulation (CMS5/CXCR4 tumours; 1 h post injection, other organs): < 1.0 % ID/g | accumulation in intestine (CMS5/CXCR4 tumours; 120 min post injection): 19.2 (±4.5) % ID/g | accumulation in kidneys (CMS5/CXCR4 tumours; 120 min post injection): 8.2 (±1.1) % ID/g | accumulation in liver (CMS5/CXCR4 tumours; 120 min post injection): 15.0 (±1.8) % ID/g | accumulation in CMS5/CXCR4 tumours (CMS5/CXCR4 tumours; 120 min post injection): 3.8 (±1.4) % ID/g | increased accumulation in CXCR4+ tumors compared to control tumors (CMS5/CXCR4 tumours; preliminary animal studies): around 10 times | specific binding (human CXCR4 [4]): > 90%

From US8614290B2, “Cancer imaging and treatment” (Technische Universitat Munchen, priority 2007, dated 2013)
